Laboratory results from patent US8445509B2, “Fused heterocyclic derivatives and use thereof” (Takeda Pharmaceutical Company Limited, priority 2008, dated 2013).

Tests used:
[1] = target: T1, VEGFR2 intracellular domain protein (Homo sapiens, UniProt P35968); assay: Vascular endothelial growth factor receptor 2 (VEGFR2) kinase inhibitory activity (AlphaScreen); format: biochemical
T1 construct: made in house; host or cells: SF-21 insect cells, recombinant baculovirus BAC-VEGFR2
Procedure: Human vascular endothelial growth factor receptor 2 (hereinafter to be referred to as VEGFR2) gene was cloned by PCR using cDNA Libraries Human Placenta (Clontech) as a template. […] The primer base sequence is shown below.
SF-21 cells were sown at 1×10^6 cells/mL to Sf-900II SFM medium (1 L, Invitrogen) containing 10% fetal bovine serum (trace), 50 mg/L Gentamicin (Invitrogen) and 0.1% Pluronic F-68 (Invitrogen), and shaking culture was performed using a 2 L volume Erlenmeyer flask at 27° C., 100 rpm. After culturing for 24 hrs, recombinant baculovirus BAC-VEGFR2 (13.4 mL) was added to the mixture, and the mixture was further cultured for 3 days. The culture medium was centrifuged at 2,000 rpm for 5 min to give virus-infected cells. The infected cells were washed with a phosphate buffered saline (Invitrogen), centrifuged under the same conditions, and the cells were preserved at −80° C. The cryopreserved cells were thawed in ice, suspended in buffer A (50 mM Tris buffer (30 mL, pH 7.4) containing 20% glycerol, 0.15 M NaCl) supplemented with Complete Protease Inhibitor (Boehringer), and ruptured 3 times with a Polytron homogenizer (Kinematica) at 20,000 rpm for 30 sec. The ruptured medium was clarified by centrifugation at 40,000 rpm for 30 min and filtered with a 0.45 μm filter. The filtrate was passed through a column packed with Anti-FLAG M2 Affinity Gel (4 mL, Sigma) at a flow rate of about 0.5 mL/min. The column was washed with buffer A, and eluted with buffer A containing 100 μg/mL of FLAG peptide. The eluate was concentrated with Vivaspin 20 (Vivascience) having a molecular weight cut off of 30K. The buffer of this concentrate was exchanged using NAP™ 25 column (Amersham Bioscience) equilibrated with buffer A. The fractions containing intracellular domain protein of VEGFR2 were collected, glycerol was added to the final concentration of 50% and cryopreserved at −80° C.
(§1) A test compound dissolved in dimethyl sulfoxide (DMSO) was diluted with a buffer (50 mM Tris-HCl (pH 7.5), 5 mM MgCl2, 5 mM MnCl2, 2 mM dithiothreitol, 0.01% Tween-20). To this compound solution (5 μL) was added a buffer (10 μL) containing 50 ng/mL of VEGFR2 intracellular domain protein and 250 ng/mL of biotin labeled polypeptide biotinyl-poly-Glu:Tyr (4:1) (CIS bio International). […] The reaction solution was allowed to stand at 25° C. for 16 hrs, and the wells were counted using a plate reader (Fusion™ (PerkinElmer)). The kinase inhibitory rate (%) of the test compound was calculated by the following formula: Inhibitory rate (%)=(1−(count of test compound−blank)÷(control−blank))×100
(§2) The count of the solution reacted without addition of the compound was used as a “control”, and the count of the solution without the compound and ATP was used as a “blank”.

[2] = tested on: Human umbilical vein-derived vascular endothelial cells (HUVEC); assay: Vascular endothelial cell proliferation inhibitory test (VEGF-stimulated HUVEC); format: cell-based; settings: 120 h, 5 days of culture with VEGF
Procedure: Human umbilical vein-derived vascular endothelial cells (HUVEC purchased from KURABO […] LTD.) were cultured in an incubator at 37° C., 5% carbon dioxide in a vascular endothelial cell medium (Invitrogen) containing 3% bovine fetal serum and 2.5 ng/mL basic fibroblast growth factor. To be specific, HUVEC was suspended in a vascular endothelial cell medium containing the aforementioned 3% bovine fetal serum and plated on a 96 well flat bottom plate by 50 μL (3000 cells) each well. After culture overnight, various concentrations of the test substance and 120 ng/mL of vascular endothelial growth factor (VEGF) were dissolved in a vascular endothelial cell medium containing 3% bovine fetal serum and added to each well by 50 μL. After 5 days of culture, a Cell counting kit-8 reagent (DOJINDO LABORATORIES) was added to each well by 10 μL, and the mixture was reacted in an incubator at 37° C., 5% carbon dioxide for 2-3 hr. The absorbance at 450 nm was measured by a microtiter plate reader and the cell proliferation inhibitory activity was determined. Using the absorbance with addition of a test substance at each concentration and based on the nonlinear least-squares analysis using a logistic curve of SAS system NLIN procedure, the concentration of the test substance (IC50 value) necessary for showing 50% of the value obtained without addition of the test substance was calculated.

[3] = target: T2, c-Met intracellular domain protein (Homo sapiens, UniProt P08581); assay: Hepatocyte growth factor receptor (c-Met) kinase inhibitory activity (AlphaScreen); format: biochemical
T2 construct: 2.5 ng/ml of c-Met intracellular domain protein (Millipore); purchased Millipore
Procedure: as §1, with “containing 2.5 ng/ml” for “containing 50 ng/mL”, “of c-Met” for “of VEGFR2”, “protein (Millipore)” for “protein”
as §2

[4] = tested on: Human gastric cancer cell line MKN-45; assay: Human gastric cancer cell line MKN-45 growth inhibitory test; format: cell-based; settings: MKN-45, 72 h, culture for 3 days
Procedure: Human gastric cancer cell line MKN-45 (RIKEN BioResource Center) was cultured in RPMI1640 (Invitrogen) containing 10% bovine fetal serum in a gas incubator at 37° C., 5% CO2. MKN-45 cells were treated with trypsin/EDTA and recovered. The cells were suspended in RPMI1640 containing 0.3% bovine fetal serum, plated on a 96 well flat bottom plate at a cells density of 3000 cells/50 μL per well. After culturing overnight, various concentrations of test substance were dissolved in RPMI1640 containing 0.3% bovine fetal serum and added to each well by 50 μL. After culture for 3 days, a Cell counting kit-8 reagent (DOJINDO LABORATORIES) was added to each well by 10 μL, and reacted in an incubator at 37° C., 5% CO2 for 2-3 hr. After the reaction, the absorbance of each well at 450 nm was measured by a microtiter plate reader. The concentration of a test substance necessary for inhibiting the growth by 50% (IC50 value) was calculated using a cell proliferation rate with addition of the test substance at each concentration and according to the nonlinear regression analysis using GraphPad Prism [Sigmoidal dose response (variable slope)]. The cell proliferation rate (%) with addition of a test substance at each concentration was calculated by the following formula. As a positive control (100% growth), dimethyl sulfoxide was added instead of a test substance. As a negative control (0% growth), the compound of Reference Example 136 (WO2005/030140, Entry 104), which is a known c-Met inhibitor, was added in large excess (10 μM) instead of a test substance.

[5] = tested on: Human blood cell cancer cell line MV-4-11; assay: Human blood cell cancer cell line MV-4-11 growth inhibitory test; format: cell-based; settings: MV4-11, 72 h, culture for 3 days
Procedure: Human blood cell cancer cell line MV-4-11 (ATCC) was cultured in IMDM (Invitrogen) containing 10% bovine fetal serum in an incubator at 37° C., 5% CO2. MV-4-11 cells were treated with trypsin/EDTA and recovered. The cells were suspended in IMDM containing 10% bovine fetal serum, plated on a 96 well flat bottom plate at a cells density of 30,000 cells/50 μL per well. After culturing overnight, various concentrations of test substance were dissolved in IMDM containing 10% bovine fetal serum and added to each well by 50 μL. After culture for 3 days, a Cell counting kit-8 reagent (DOJINDO LABORATORIES) was added to each well by 10 μL, and reacted in an incubator at 37° C., 5% CO2 for 2-3 hr. After the reaction, the absorbance of each well at 450 nm was measured by a microtiter plate reader. The concentration of a test substance necessary for inhibiting the growth by 50% (IC50 value) was calculated using a cell proliferation rate with addition of the test substance at each concentration and according to the nonlinear regression analysis using GraphPad Prism [Sigmoidal dose response (variable slope)].

[6] = target: T3, FLT3 intracellular domain protein (Homo sapiens, UniProt P36888); assay: Fms Like Tyrosine Kinase 3 (FLT3) kinase inhibitory activity (AlphaScreen); format: biochemical
T3 construct: 7.5 ng/ml of FLT3 intracellular domain protein (Millipore); purchased Millipore
T3 sequence (P36888 564-993 limits assumed): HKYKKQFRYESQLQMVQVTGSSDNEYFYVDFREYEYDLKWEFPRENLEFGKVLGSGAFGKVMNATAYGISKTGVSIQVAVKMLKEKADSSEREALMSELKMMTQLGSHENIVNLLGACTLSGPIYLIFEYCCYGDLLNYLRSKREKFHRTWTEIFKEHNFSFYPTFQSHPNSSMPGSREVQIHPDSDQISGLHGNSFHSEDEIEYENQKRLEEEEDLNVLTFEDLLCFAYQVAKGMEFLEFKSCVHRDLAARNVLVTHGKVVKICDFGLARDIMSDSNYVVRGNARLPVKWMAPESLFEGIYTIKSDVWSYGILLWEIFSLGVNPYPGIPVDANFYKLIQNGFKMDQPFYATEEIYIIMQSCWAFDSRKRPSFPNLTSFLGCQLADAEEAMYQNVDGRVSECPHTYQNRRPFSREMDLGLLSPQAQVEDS
Procedure: A test compound dissolved in dimethyl sulfoxide (DMSO) was diluted with a buffer (50 mM Tris-HCl (pH 7.5), 5 mM MgCl2, 5 mM MnCl2, 2 mM dithiothreitol, 0.01% Tween-20). To this compound solution (5 μL) was added a buffer (10 μL) containing 7.5 ng/ml of FLT3 intracellular domain protein (Millipore) and 250 ng/mL of biotin labeled polypeptide biotinyl-poly-Glu:Tyr (4:1) (CIS bio International). At 5 min after mixing kinase enzyme and the compound and biotin labeled polypeptide, to the obtained mixture was added a buffer (10 μL) containing ATP (5 μM), the mixture was allowed to react at 25° C. for 10 min and the reaction was quenched with 25 μL of a stop solution (100 mM EDTA disodium salt, 62.5 mM HEPES buffer (pH 7.4), 250 mM NaCl, 0.1% bovine serum albumin, 10 μg/mL AlphaScreen assay streptavidin donor beads (Streptavidin Donor Beads: PerkinElmer), 10 μg/mL AlphaScreen assay anti-phosphotyrosine recognition antibody Y-100 binding acceptor beads (Anti-phosphotyrosine (P-Tyr-100) Acceptor beads: PerkinElmer)). The reaction solution was allowed to stand at 25° C. for 16 hrs, and the wells were counted using a plate reader (Envision™ (PerkinElmer)). The kinase inhibitory rate (%) of the test compound was calculated by the following formula: Inhibitory rate (%)=(1−(count of test compound−blank)÷(control−blank))×100
as §2

[7] = target: T4, Tie2 intracellular domain protein (Homo sapiens, UniProt Q02763); assay: TIE2 kinase inhibitory activity (AlphaScreen); format: biochemical
T4 construct: 50 ng/mL of Tie2 intracellular domain protein (Millipore); purchased Millipore
Procedure: A test compound dissolved in dimethyl sulfoxide (DMSO) was diluted with a buffer (50 mM Tris-HCl (pH 7.5), 5 mM MgCl2, 5 mM MnCl2, 2 mM dithiothreitol, 0.01% Tween-20). A buffer (10 μL) containing 50 ng/mL of Tie2 intracellular domain protein (Millipore) and 250 ng/ml, of biotin labeled polypeptide biotinyl-poly-Glu:Tyr (4:1) (CIS bio International) was added to the compound solution (5 μL). At 5 min from the mixing of the kinase enzyme, the compound and the biotin labeled polypeptide, a buffer (10 μL) containing 5 μM ATP was added, and the mixture was reacted at 25° C. for 10 min. The reaction was quenched by the addition of 25 μL of a stop solution (100 mM EDTA disodium salt, 62.5 mM HEPES buffer (pH 7.4), 250 mM NaCl, 0.1% bovine serum albumin, 10 μg/ml AlphaScreen assay streptavidin donor beads (Streptavidin Donor beads: PerkinElmer), 10 μg/ml, AlphaScreen assay anti-phosphotyrosine recognition antibody PT-66 binding acceptor beads (Anti-phosphotyrosine (PT-66) Acceptor beads: PerkinElmer)). The reaction solution was allowed to stand at 25° C. for 16 hrs, and the […] were counted using a plate reader (Fusion™ (PerkinElmer)). The kinase inhibitory rate (%) of the test compound was calculated by the following formula: Inhibitory rate (%)=(1−(count of test compound−blank)÷(control−blank))×100
as §2

[8] = 1 μM test compound, read-out: inhibitory rate (%) at 1 μM
[9] = 1 μM test substance, read-out: inhibitory rate (%) at 1 μM

T1 sequence (P35968 786-1356 limits assumed): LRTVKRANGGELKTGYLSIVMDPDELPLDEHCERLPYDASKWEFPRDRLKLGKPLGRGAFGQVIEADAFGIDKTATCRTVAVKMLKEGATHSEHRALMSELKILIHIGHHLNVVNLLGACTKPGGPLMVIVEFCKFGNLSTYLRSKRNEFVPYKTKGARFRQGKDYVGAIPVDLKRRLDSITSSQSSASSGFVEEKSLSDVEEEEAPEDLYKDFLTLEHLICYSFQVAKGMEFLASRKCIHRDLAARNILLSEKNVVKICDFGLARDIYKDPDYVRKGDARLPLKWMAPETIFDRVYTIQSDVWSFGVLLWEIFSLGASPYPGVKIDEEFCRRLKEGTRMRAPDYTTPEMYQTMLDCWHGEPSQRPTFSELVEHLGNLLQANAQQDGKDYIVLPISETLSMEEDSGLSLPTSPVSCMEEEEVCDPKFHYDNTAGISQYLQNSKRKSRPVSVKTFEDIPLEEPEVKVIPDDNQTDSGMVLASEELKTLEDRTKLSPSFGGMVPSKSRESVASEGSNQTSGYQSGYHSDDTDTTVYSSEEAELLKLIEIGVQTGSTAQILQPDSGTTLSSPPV
T2 sequence (P08581 956-1390 limits assumed): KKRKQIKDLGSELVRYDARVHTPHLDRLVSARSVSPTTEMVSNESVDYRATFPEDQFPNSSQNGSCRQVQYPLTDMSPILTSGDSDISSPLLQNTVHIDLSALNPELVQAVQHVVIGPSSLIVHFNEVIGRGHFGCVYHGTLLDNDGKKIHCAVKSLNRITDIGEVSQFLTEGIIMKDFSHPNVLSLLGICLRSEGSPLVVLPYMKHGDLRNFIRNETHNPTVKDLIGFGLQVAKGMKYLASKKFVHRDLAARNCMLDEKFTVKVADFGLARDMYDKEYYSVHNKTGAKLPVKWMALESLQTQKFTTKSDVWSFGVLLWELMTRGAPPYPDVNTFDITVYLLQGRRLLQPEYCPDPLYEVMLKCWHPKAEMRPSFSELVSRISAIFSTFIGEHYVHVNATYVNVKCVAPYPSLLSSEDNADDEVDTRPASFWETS
T4 sequence (Q02763 770-1124 limits assumed): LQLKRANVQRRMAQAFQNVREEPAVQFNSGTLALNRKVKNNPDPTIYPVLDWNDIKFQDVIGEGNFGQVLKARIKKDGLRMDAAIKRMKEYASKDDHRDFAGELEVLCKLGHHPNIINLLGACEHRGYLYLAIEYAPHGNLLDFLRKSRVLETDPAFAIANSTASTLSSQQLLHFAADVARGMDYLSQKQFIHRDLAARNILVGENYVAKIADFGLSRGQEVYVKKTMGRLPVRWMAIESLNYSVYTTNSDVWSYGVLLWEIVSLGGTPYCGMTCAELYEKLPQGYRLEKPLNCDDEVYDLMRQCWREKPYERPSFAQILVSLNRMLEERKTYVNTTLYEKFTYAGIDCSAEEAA

SMILES	IC50 [1] [nM]	inhibition at 1 µM [1, 8] [%]	inhibition at 1 µM [2, 9] [%]	IC50 [2] [nM]	IC50 [3] [nM]	inhibition at 1 µM [3, 8] [%]	inhibition at 1 µM [4, 9] [%]	IC50 ([4]; read-out: IC50 value) [nM]	inhibition at 1 µM [5, 9] [%]	IC50 [5] [nM]	IC50 [6] [nM]	IC50 [7] [nM]
O=C(Nc1nc2ccc(Oc3ccc(NC(=O)C4(C(=O)Nc5ccccc5)CC4)cc3F)nc2s1)C1CC1 [Example 20, N-[4-({2-[(cyclopropylcarbonyl)amino][1,3]thiazolo[5,4-b]pyridin-5-yl}oxy)-3-fluorophenyl]-N′-phenylcyclopropane-1,1-dicarboxamide]	≤ 1000	≥ 70	≥ 40	≤ 2000	≤ 1000	≥ 80	≥ 80	≤ 1000	≥ 90	≤ 1000	–	–
Cc1ccc(C(=O)Nc2ccc(Oc3ccc4nc(NC(=O)C5CC5)cn4c3)c(F)c2)c(=O)n1-c1ccc(F)cc1 [Example 90, N-[4-({2-[(cyclopropylcarbonyl)amino]imidazo[1,2-a]pyridin-6-yl}oxy)-3-fluorophenyl]-1-(4-fluorophenyl)-6-methyl-2-oxo-1,2-dihydropyridine-3-carboxamide acetate]	–	–	–	–	–	–	–	–	–	–	≤ 1000	≤ 1000
